Laboratory results reported in article PMC3772719 (Bioorganic & medicinal chemistry letters, 2013).
“Also recorded” adds a separate entry of the source.

Experiments:
[1] = test system: PPC-1 prostate cancer cells; conditions: for synergy with TRAIL to reduce the number of viable cells: compound 5 μM, Figure 4; for synergy with TRAIL to reduce the number of viable cells / LD50 values for TRAIL in the presence of the compound: PPC-1 cells; for LD50 values for TRAIL in the presence of the compound: compound 5 μM for 4 h, then TRAIL 20 h
[2] = test system: human foreskin fibroblasts (HFF); format: cell-based; conditions: compound 5 μM alone or in the presence of TRAIL (100 ng/mL), Figure 5
MDA-MB-231 cells = experiment: Synergy with TNF to induce cell death in MDA-MB-231 cells; format: cell-based; conditions: compound 5 μM, various concentrations of TNF, Figure S2
Cellular assay = format: cell-based; conditions: Figure S1

Compound	synergy with TRAIL to reduce the number of viable cells [1]	toxicity in normal cells [2]	synergy with TNF to induce cell death (MDA-MB-231 cells)	LD50 values for TRAIL in the presence of the compound [1] [nM]	activity in a cellular assay (Cellular assay)	toxicity as a single agent ([1]; single agent, Figures 4, 5 and S1)
CN[C@@H](C)C(=O)N[C@H](C(=O)N1CCC[C@H]1C(=O)NNc1ccccc1)C(C)C [Compound 2a]	act synergistically with TRAIL	–	–	–	–	–
CN[C@@H](C)C(=O)N[C@H](C(=O)N1CCC[C@H]1C(=O)Nc1cccc2ccccc12)C(C)C [Compound 2b]	act synergistically with TRAIL	No toxicity was observed	acts synergistically	0.073 to 0.089	–	–
CN[C@@H](C)C(=O)N[C@H](C(=O)N1CCC[C@H]1C(=O)N[C@@H]1CCCc2ccccc21)C(C)C [Compound 2c]	act synergistically with TRAIL	–	–	0.073 to 0.089	–	–
CC(C)[C@H](NC(=O)[C@H](C)N)C(=O)N[C@@H](C)C(=O)Nc1cccc2ccccc12 [Compound 8t]	–	–	–	–	did not show any activity	–
CN[C@@H](C)C(=O)N[C@H](C(=O)N[C@@H](C)C(=O)Nc1cccc2ccccc12)C(C)C [Compound 8q]	sensitized TRAIL-resistant prostate cancer cells to apoptotic cell death; also recorded: act synergistically with TRAIL	No toxicity was observed	–	0.073 to 0.089	–	no toxicity
